# Laboratory results reported in patent US6294554A (priority 2000, dated 2001).
# Tested on: acetylcholine (ACh)
# Assay: In vivo microdialysis, acetylcholine (ACh) levels in striatum
# Set-up: species or system male Sprague-Dawley Rats
# Details: 10 mg/kg PO, rat striatum ACh
# Procedure: Microdialysis Methodology
# Surgery: For these studies, male Sprague-Dawley Rats (250-350 g) were anesthetized with sodium pentobarbital (54 mg/kg, ip) and placed on a Kopf sterotaxic apparatus. The skull was exposed and drilled through to the dura at a point 0.2 mm anterior and 3.0 mm lateral to the bregma. At these coordinates, a guide cannula was positioned at the outer edge of the dura through the drilled opening, lowered perpendicularly to a depth of 2.5 mm, and permanently secured with dental cement to bone screws. Following the surgery, rats were given ampicillin (40 mg/kg, ip) and individually housed in modified cages. A recovery period of approximately 3 to 7 days was allowed before the microdialysis procedure was undertaken.
# Microdialysis: All of the equipment and instrumentation used to conduct in vivo microdialysis was obtained from Bioanalytical Systems, Inc. (BAS). The microdialysis procedure involved the insertion through the guide cannula of a thin, needle-like perfusable probe (CMA/12, 3 mm×0.5 mm) to a depth of 3 mm in striatum beyond the end of the guide. The probe was connected beforehand with tubing to a microinjection pump (CMA/100). Rats were collared, tethered, and, following probe insertion, were placed in a large, clear, plexiglass bowl with litter material and access to food and water. The probe was perfused at 2, μl/min with Ringer's buffer (NaCl 147 mM; KCl 3.0 mM; CaCl2 1.2 mM; MgCl2 1.0 mM) containing 5.5 mM glucose, 0.2 mM L-ascorbate, and 1 μM neostigmine bromide at pH 7.4). To achieve stable baseline readings, microdialysis was allowed to proceed for 90 minutes prior to the collection of fractions. Fractions (20 μl) were obtained at 10 minute intervals over a 3 hour period using a refrigerated collector (CMA/1 70 or 200). Four to five baseline fractions were collected, following which the drug or combination of drugs to be tested was administered to the animal. Upon completion of the collection, each rat was autopsied to determine accuracy of probe placement.
# Acetylcholine (ACh) analysis: The concentration of ACh in collected samples of microdialysate was determined using HPLC/electrochemical detection. Samples were auto-injected (Waters 712 Refrigerated Sample Processor) onto a polymeric analytical HPLC column (BAS, MF-6150) and eluted with 50 mM Na2 HPO4, pH 8.5. To prevent bacterial growth, Kathon CG reagent (0.005%) (BAS) was included in the mobile phase. Eluent from the analytical column, containing separated ACh and choline, was then immediately passed through an immobilized enzyme reactor cartridge (BAS, MF-6151) coupled to the column outlet. […] Integration and quantification of peaks were accomplished using "Maxima" chromatography software (Waters Corporation). […]
row,SMILES,Microdialysis Maximum % of baseline
1,Nc1ccccc1C(=O)N1CCC(N2CCC(Cc3ccc(S(=O)(=O)c4cccc(Cl)c4)cc3)CC2)CC1 [Example 7A],150%
2,COc1ccc(S(=O)(=O)c2ccc(C3(C4CCN(C5CCN(C(=O)c6cccc(C)c6N)CC5)CC4)OCCO3)cc2)cc1 [Example 2],194%
3,Nc1cc(F)ccc1C(=O)N1CCC(N2CCC(C3(c4ccc(S(=O)(=O)c5cccc(Cl)c5)cc4)OCCO3)CC2)CC1 [Example 3E],188%
4,COc1ccc(S(=O)(=O)c2ccc(C3(C4CCN(C5CCN(C(=O)c6cccc(F)c6N)CC5)CC4)OCCO3)cc2)cc1 [Example 2F],186%
